Reference: PubChem BioAssay (NCI)
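48-hour exposure; five concentrations; linearly interpolated endpoints. The concentration for 50% growth inhibition is given as GI50. At the TGI there is no net growth.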

How the values were obtained:
Assay in all cases: DTP human tumour cell line panel, 48 h
NCI-H226 lung = tested on: NCI-H226 lung
SK-MEL-2 melanoma = tested on: SK-MEL-2 melanoma
MCF7 breast = tested on: MCF7 breast
ACHN renal = tested on: ACHN renal
U251 CNS = tested on: U251 CNS
RPMI-8226 leukemia = tested on: RPMI-8226 leukemia
NCI-H460 lung = tested on: NCI-H460 lung
NCI/ADR-RES ovarian = tested on: NCI/ADR-RES ovarian
KM12 colon = tested on: KM12 colon
HCC-2998 colon = tested on: HCC-2998 colon
HCT-15 colon = tested on: HCT-15 colon
A498 renal = tested on: A498 renal
T-47D breast = tested on: T-47D breast
SF-539 CNS = tested on: SF-539 CNS
SR leukemia = tested on: SR leukemia
UACC-257 melanoma = tested on: UACC-257 melanoma
TK-10 renal = tested on: TK-10 renal
SF-268 CNS = tested on: SF-268 CNS
MDA-MB-231 breast = tested on: MDA-MB-231 breast
SF-295 CNS = tested on: SF-295 CNS
UO-31 renal = tested on: UO-31 renal
A549 NSCLC = tested on: A549 NSCLC
MOLT-4 leukemia = tested on: MOLT-4 leukemia
OVCAR-3 ovarian = tested on: OVCAR-3 ovarian
MDA-MB-435 = tested on: MDA-MB-435
NCI-H23 lung = tested on: NCI-H23 lung
HOP-62 NSCLC = tested on: HOP-62 NSCLC
DU-145 prostate = tested on: DU-145 prostate
HS 578T breast = tested on: HS 578T breast
RXF 393 renal = tested on: RXF 393 renal
IGROV1 ovarian = tested on: IGROV1 ovarian
786-0 renal = tested on: 786-0 renal
SK-OV-3 ovarian = tested on: SK-OV-3 ovarian
COLO 205 colon = tested on: COLO 205 colon
SK-MEL-5 melanoma = tested on: SK-MEL-5 melanoma
HCT-116 colon = tested on: HCT-116 colon
SK-MEL-28 melanoma = tested on: SK-MEL-28 melanoma
LOX IMVI melanoma = tested on: LOX IMVI melanoma
MALME-3M melanoma = tested on: MALME-3M melanoma
BT-549 breast = tested on: BT-549 breast
OVCAR-8 ovarian = tested on: OVCAR-8 ovarian
K-562 leukemia = tested on: K-562 leukemia
PC-3 prostate = tested on: PC-3 prostate
CAKI-1 renal = tested on: CAKI-1 renal
M14 melanoma = tested on: M14 melanoma
UACC-62 melanoma = tested on: UACC-62 melanoma
OVCAR-5 ovarian = tested on: OVCAR-5 ovarian
SNB-19 CNS = tested on: SNB-19 CNS
SN12C renal = tested on: SN12C renal
HOP-92 NSCLC = tested on: HOP-92 NSCLC
HL-60(TB) leukemia = tested on: HL-60(TB) leukemia
SNB-75 CNS = tested on: SNB-75 CNS
OVCAR-4 ovarian = tested on: OVCAR-4 ovarian
SW-620 colon = tested on: SW-620 colon
HT29 colon = tested on: HT29 colon
CCRF-CEM leukemia = tested on: CCRF-CEM leukemia
NCI-H522 lung = tested on: NCI-H522 lung

## COC(=O)c1cc2ccccc2c2c3c(ccc12)OCO3
NCI-H226 lung
  GI50: 26.4 µM
  TGI: 146 µM
SK-MEL-2 melanoma
  GI50: 49.9 µM
  TGI: 334 µM
MCF7 breast
  GI50: 306 µM
  TGI: > 1000 µM
ACHN renal
  GI50: 75.3 µM
  TGI: > 1000 µM
U251 CNS
  GI50: 79.2 µM
  TGI: 924 µM
RPMI-8226 leukemia
  GI50: 430 µM
  TGI: > 1000 µM
NCI-H460 lung
  GI50: 290 µM
  TGI: > 1000 µM
NCI/ADR-RES ovarian
  GI50: 54.4 µM
  TGI: > 1000 µM
KM12 colon
  GI50: 515 µM
  TGI: > 1000 µM
HCC-2998 colon
  GI50: 562 µM
  TGI: > 1000 µM
HCT-15 colon
  GI50: 137 µM
  TGI: > 1000 µM
A498 renal
  GI50: 15.5 µM
  TGI: 129 µM
T-47D breast
  GI50: 44.2 µM
  TGI: > 1000 µM
SF-539 CNS
  GI50: 44.4 µM
  TGI: 394 µM
SR leukemia
  GI50: 167 µM
  TGI: > 1000 µM
UACC-257 melanoma
  GI50: 199 µM
  TGI: > 1000 µM
TK-10 renal
  GI50: 43.8 µM
  TGI: 325 µM
SF-268 CNS
  GI50: 50.6 µM
  TGI: 371 µM
MDA-MB-231 breast
  GI50: 59.7 µM
  TGI: > 1000 µM
SF-295 CNS
  GI50: 99.8 µM
  TGI: 548 µM
UO-31 renal
  GI50: 224 µM
  TGI: > 1000 µM
A549 NSCLC
  GI50: 117 µM
  TGI: > 1000 µM
MOLT-4 leukemia
  GI50: 794 µM
  TGI: > 1000 µM
OVCAR-3 ovarian
  GI50: 68.7 µM
  TGI: 700 µM
MDA-MB-435
  GI50: 531 µM
  TGI: > 1000 µM
NCI-H23 lung
  GI50: 161 µM
  TGI: > 1000 µM
HOP-62 NSCLC
  GI50: 26.2 µM
  TGI: 91.7 µM
DU-145 prostate
  GI50: 109 µM
  TGI: > 1000 µM
HS 578T breast
  GI50: 36.4 µM
  TGI: 247 µM
RXF 393 renal
  GI50: 14.8 µM
  TGI: 89.5 µM
IGROV1 ovarian
  GI50: 90.7 µM
  TGI: > 1000 µM
786-0 renal
  GI50: 56.1 µM
  TGI: 477 µM
SK-OV-3 ovarian
  GI50: 45.8 µM
  TGI: 357 µM
COLO 205 colon
  TGI: > 1000 µM
SK-MEL-5 melanoma
  GI50: 45.2 µM
  TGI: > 1000 µM
HCT-116 colon
  GI50: 194 µM
  TGI: > 1000 µM
SK-MEL-28 melanoma
  GI50: 71.3 µM
  TGI: 328 µM
LOX IMVI melanoma
  GI50: 772 µM
  TGI: > 1000 µM
MALME-3M melanoma
  GI50: 76.6 µM
  TGI: 483 µM
BT-549 breast
  GI50: 47.1 µM
  TGI: 482 µM
OVCAR-8 ovarian
  GI50: 41.1 µM
  TGI: > 1000 µM
K-562 leukemia
  GI50: 658 µM
  TGI: > 1000 µM
PC-3 prostate
  GI50: 67.4 µM
  TGI: > 1000 µM
CAKI-1 renal
  GI50: 278 µM
  TGI: > 1000 µM
M14 melanoma
  GI50: 474 µM
  TGI: > 1000 µM
UACC-62 melanoma
  GI50: 40.1 µM
  TGI: > 1000 µM
OVCAR-5 ovarian
  GI50: 223 µM
  TGI: > 1000 µM
SNB-19 CNS
  GI50: 73 µM
  TGI: 990 µM
SN12C renal
  GI50: 205 µM
  TGI: > 1000 µM
HOP-92 NSCLC
  GI50: 17.4 µM
  TGI: 73 µM
HL-60(TB) leukemia
  TGI: > 1000 µM
SNB-75 CNS
  GI50: 12.2 µM
  TGI: 48.1 µM
OVCAR-4 ovarian
  GI50: 22.3 µM
  TGI: 133 µM
SW-620 colon
  GI50: 900 µM
  TGI: > 1000 µM
HT29 colon
  GI50: 33.7 µM
  TGI: > 1000 µM

## CC(C)CCNCC(O)Cn1c2ccccc2c2ccccc21 (stereo not given)
NCI-H226 lung
  GI50: 15.7 µM
  TGI: 37.9 µM
MCF7 breast
  GI50: 2.72 µM
  TGI: 10.3 µM
ACHN renal
  GI50: 10.5 µM
  TGI: 23.4 µM
U251 CNS
  GI50: 10.5 µM
  TGI: 23.5 µM
RPMI-8226 leukemia
  GI50: 3.1 µM
  TGI: 11.2 µM
NCI-H460 lung
  GI50: 3.64 µM
  TGI: 13.7 µM
NCI/ADR-RES ovarian
  GI50: 14.2 µM
  TGI: 30.7 µM
KM12 colon
  GI50: 3.91 µM
  TGI: 14.4 µM
HCC-2998 colon
  GI50: 2.06 µM
  TGI: 4.22 µM
HCT-15 colon
  GI50: 11.9 µM
  TGI: 26.7 µM
A498 renal
  GI50: 9.52 µM
  TGI: 22.8 µM
CCRF-CEM leukemia
  GI50: 12.8 µM
  TGI: 31.7 µM
T-47D breast
  GI50: 3.99 µM
  TGI: 14.6 µM
SF-539 CNS
  GI50: 15.8 µM
  TGI: 30.2 µM
SR leukemia
  GI50: 2.45 µM
  TGI: 6.38 µM
UACC-257 melanoma
  GI50: 5 µM
  TGI: 17.2 µM
TK-10 renal
  GI50: 14 µM
  TGI: 27.6 µM
SF-268 CNS
  GI50: 12.2 µM
  TGI: 26.4 µM
MDA-MB-231 breast
  GI50: 3.51 µM
  TGI: 14.4 µM
SF-295 CNS
  GI50: 19.4 µM
  TGI: 39.4 µM
UO-31 renal
  GI50: 9.21 µM
  TGI: 23.3 µM
A549 NSCLC
  GI50: 16.4 µM
  TGI: 31.9 µM
MOLT-4 leukemia
  GI50: 10.2 µM
  TGI: 25.9 µM
OVCAR-3 ovarian
  GI50: 13.4 µM
  TGI: 26.8 µM
MDA-MB-435
  GI50: 3.82 µM
  TGI: 14.8 µM
NCI-H23 lung
  GI50: 16.4 µM
  TGI: 31.9 µM
HOP-62 NSCLC
  GI50: 15.4 µM
  TGI: 29.7 µM
DU-145 prostate
  GI50: 14.6 µM
  TGI: 27.9 µM
HS 578T breast
  GI50: 13.8 µM
  TGI: 38.9 µM
NCI-H522 lung
  GI50: 13.6 µM
  TGI: 27.7 µM
RXF 393 renal
  GI50: 5.36 µM
  TGI: 19.9 µM
IGROV1 ovarian
  GI50: 14 µM
  TGI: 32.1 µM
786-0 renal
  GI50: 13.2 µM
  TGI: 27.3 µM
SK-OV-3 ovarian
  GI50: 17.2 µM
  TGI: 31.2 µM
COLO 205 colon
  GI50: 2 µM
  TGI: 3.95 µM
SK-MEL-5 melanoma
  GI50: 2.27 µM
  TGI: 6.25 µM
HCT-116 colon
  GI50: 9.47 µM
  TGI: 24.1 µM
SK-MEL-28 melanoma
  GI50: 4.42 µM
  TGI: 16.1 µM
LOX IMVI melanoma
  GI50: 5.6 µM
  TGI: 18.5 µM
MALME-3M melanoma
  GI50: 7.17 µM
  TGI: 23 µM
BT-549 breast
  GI50: 16.5 µM
  TGI: 31.4 µM
OVCAR-8 ovarian
  GI50: 13.7 µM
  TGI: 33.7 µM
K-562 leukemia
  GI50: 3.69 µM
  TGI: 13.2 µM
PC-3 prostate
  GI50: 10.6 µM
  TGI: 23 µM
CAKI-1 renal
  GI50: 14.3 µM
  TGI: 29.8 µM
M14 melanoma
  GI50: 2.73 µM
  TGI: 7.5 µM
UACC-62 melanoma
  GI50: 10.4 µM
  TGI: 22.4 µM
OVCAR-5 ovarian
  GI50: 12.4 µM
  TGI: 25.7 µM
SNB-19 CNS
  GI50: 13.8 µM
  TGI: 28.8 µM
SN12C renal
  GI50: 11.2 µM
  TGI: 25.1 µM
HOP-92 NSCLC
  GI50: 2.71 µM
  TGI: 18.1 µM
HL-60(TB) leukemia
  GI50: 14.3 µM
  TGI: 31.6 µM
SNB-75 CNS
  GI50: 6.54 µM
  TGI: 21 µM
OVCAR-4 ovarian
  GI50: 12.9 µM
  TGI: 27.2 µM
SW-620 colon
  GI50: 10.4 µM
  TGI: 24 µM
HT29 colon
  GI50: 3.42 µM
  TGI: 10.6 µM
